Assay results: PubChem BioAssay (NCI)
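Interpolation was linear, between the two tested concentrations surrounding the appropriate level; five concentrations were tested over 48 hours in 96-well plates. TGI: total growth inhibition.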

Columns and labels:
Test in all cases: NCI-60 cell line screen, 48 h
786-0 renal = system: 786-0 renal
A549 NSCLC = system: A549 NSCLC
ACHN renal = system: ACHN renal
BT-549 breast = system: BT-549 breast
CAKI-1 renal = system: CAKI-1 renal
CCRF-CEM leukemia = system: CCRF-CEM leukemia
COLO 205 colon = system: COLO 205 colon
DU-145 prostate = system: DU-145 prostate
EKVX NSCLC = system: EKVX NSCLC
HCC-2998 colon = system: HCC-2998 colon
HCT-116 colon = system: HCT-116 colon
HCT-15 colon = system: HCT-15 colon
HL-60(TB) leukemia = system: HL-60(TB) leukemia
HOP-62 NSCLC = system: HOP-62 NSCLC
HT29 colon = system: HT29 colon
IGROV1 ovarian = system: IGROV1 ovarian
K-562 leukemia = system: K-562 leukemia
M14 melanoma = system: M14 melanoma
MALME-3M melanoma = system: MALME-3M melanoma
MCF7 breast = system: MCF7 breast
MDA-N = system: MDA-N
MOLT-4 leukemia = system: MOLT-4 leukemia
NCI-H226 lung = system: NCI-H226 lung
NCI-H23 lung = system: NCI-H23 lung
NCI-H460 lung = system: NCI-H460 lung
NCI-H522 lung = system: NCI-H522 lung
NCI/ADR-RES ovarian = system: NCI/ADR-RES ovarian
OVCAR-3 ovarian = system: OVCAR-3 ovarian
OVCAR-4 ovarian = system: OVCAR-4 ovarian
OVCAR-5 ovarian = system: OVCAR-5 ovarian
OVCAR-8 ovarian = system: OVCAR-8 ovarian
PC-3 prostate = system: PC-3 prostate
RPMI-8226 leukemia = system: RPMI-8226 leukemia
RXF 393 renal = system: RXF 393 renal
SF-268 CNS = system: SF-268 CNS
SF-295 CNS = system: SF-295 CNS
SF-539 CNS = system: SF-539 CNS
SK-MEL-28 melanoma = system: SK-MEL-28 melanoma
SK-MEL-5 melanoma = system: SK-MEL-5 melanoma
SK-OV-3 ovarian = system: SK-OV-3 ovarian
SN12C renal = system: SN12C renal
SNB-19 CNS = system: SNB-19 CNS
SNB-75 CNS = system: SNB-75 CNS
SR leukemia = system: SR leukemia
SW-620 colon = system: SW-620 colon
TK-10 renal = system: TK-10 renal
U251 CNS = system: U251 CNS
UACC-257 melanoma = system: UACC-257 melanoma
UACC-62 melanoma = system: UACC-62 melanoma
UO-31 renal = system: UO-31 renal

Measured: TGI

N#CCCC(CC#N)N1CCN(C(CC#N)CCC#N)CC1 (stereo not given)
> 100 µM: 786-0 renal | A549 NSCLC | ACHN renal | BT-549 breast | CAKI-1 renal | CCRF-CEM leukemia | COLO 205 colon | DU-145 prostate | EKVX NSCLC | HCC-2998 colon | HCT-116 colon | HCT-15 colon | HL-60(TB) leukemia | HOP-62 NSCLC | HT29 colon | IGROV1 ovarian | K-562 leukemia | M14 melanoma | MALME-3M melanoma | MCF7 breast | MDA-N | MOLT-4 leukemia | NCI-H226 lung | NCI-H23 lung | NCI-H460 lung | NCI-H522 lung | NCI/ADR-RES ovarian | OVCAR-3 ovarian | OVCAR-4 ovarian | OVCAR-5 ovarian | OVCAR-8 ovarian | PC-3 prostate | RPMI-8226 leukemia | RXF 393 renal | SF-268 CNS | SF-295 CNS | SF-539 CNS | SK-MEL-28 melanoma | SK-MEL-5 melanoma | SK-OV-3 ovarian | SN12C renal | SNB-19 CNS | SNB-75 CNS | SR leukemia | SW-620 colon | TK-10 renal | U251 CNS | UACC-257 melanoma | UACC-62 melanoma | UO-31 renal
